PMC8147764, “Heterologous Expression, Engineering and Characterization of a Novel Laccase of Agrocybe pediades with Promising Properties as Biocatalyst” (Journal of Fungi, 2021)

Molecular target: T1, ApL (A. pediades laccase) (Agrocybe pediades, UniProt A0A8H4QKE8, V194E/N433D)
T1 construct: gene D9613_012768
Details: read-out: IC50 (mM or v/v % ^a); DM variant; ABTS about 3 mM, citrate-phosphate pH 3; fluoride, TNC site

## F [NaF]
  IC50: 0.051 ± 0.002 mM
